# Experimental data taken from ChEMBL document CHEMBL1201862, “PubChem BioAssay data set” (2004).
#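 Step 1: Grow cells in 96-well plates. Step 2: Expose to compound for 48 hours at 5 concentrations. Step 3: Interpolate endpoints linearly; if unreached, use highest concentration. Here, GI50 denotes the concentration required for 50% inhibition of growth.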 Activity calls are given as the source filed them. Rule as the data show it: active = GI50 up to about 1.1 µM and inactive = higher.
# Tests used:
# Assay in all cases: NCI anticancer screen, dose series, 48 h
# HCT-15 = system: HCT-15
# SF-539 = system: SF-539
# NCI-H522 = system: NCI-H522
# A549 = system: A549
# PC-3 = system: PC-3
# SK-MEL-28 = system: SK-MEL-28
# RPMI-8226 = system: RPMI-8226
# MDA-MB-231 = system: MDA-MB-231
# EKVX = system: EKVX
# MOLT-4 = system: MOLT-4
# MCF7 = system: MCF7
# K562 = system: K562
# 786-0 = system: 786-0
# SW-620 = system: SW-620
# HOP-62 = system: HOP-62
# NCI/ADR-RES = system: NCI/ADR-RES
# UACC-62 = system: UACC-62
# SK-MEL-2 = system: SK-MEL-2
# SK-OV-3 = system: SK-OV-3
# OVCAR-4 = system: OVCAR-4
SMILES,GI50 (HCT-15) [µM],GI50 (SF-539),GI50 (NCI-H522),GI50 (A549),GI50 (PC-3),GI50 (SK-MEL-28),GI50 (RPMI-8226),GI50 (MDA-MB-231),GI50 (EKVX),GI50 (MOLT-4),GI50 (MCF7),GI50 (K562),GI50 (786-0),GI50 (SW-620),GI50 (HOP-62),GI50 (NCI/ADR-RES),GI50 (UACC-62),GI50 (SK-MEL-2),GI50 (SK-OV-3),GI50 (OVCAR-4)
O=c1ccn(C2OC(CO)C(O)C2F)c(=O)n1Cc1ccccc1 (stereo unspecified),> 100,> 100 µM (inactive),> 100 µM (inactive),> 100 µM (inactive),> 100 µM (inactive),> 100 µM (inactive),> 100 µM (inactive),> 100 µM (inactive),> 100 µM (inactive),> 100 µM (inactive),> 100 µM (inactive),> 100 µM (inactive),> 100 µM (inactive),> 100 µM (inactive),> 100 µM (inactive),> 100 µM (inactive),> 100 µM (inactive),,,
NC(=O)c1ccc(NS(=O)(=O)c2ccc(N)cc2)nc1,> 100,,,,> 100 µM (inactive),> 100 µM (inactive),> 100 µM (inactive),> 100 µM (inactive),> 100 µM (inactive),> 100 µM (inactive),> 100 µM (inactive),> 100 µM (inactive),> 100 µM (inactive),> 100 µM (inactive),> 100 µM (inactive),> 100 µM (inactive),> 100 µM (inactive),> 100 µM (inactive),> 100 µM (inactive),> 100 µM (inactive)
CC(=O)OC12c3ccccc3C(c3ccccc31)C1C(=O)N(c3ccccc3O)C(=O)C12 (stereo unspecified),> 100,> 100 µM (inactive),,> 100 µM (inactive),> 100 µM (inactive),> 100 µM (inactive),66.5 µM (inactive),> 100 µM (inactive),> 100 µM (inactive),> 100 µM (inactive),> 100 µM (inactive),> 100 µM (inactive),> 100 µM (inactive),> 100 µM (inactive),96.4 µM (inactive),> 100 µM (inactive),> 10 µM (inactive),,> 100 µM (inactive),> 100 µM (inactive)
C[C@@H]1OC(=O)C[C@H]2CC(=O)N(CCC3CN(S(=O)(=O)C(F)(F)F)c4ccc(Cc5ccc6c(c5)C(CCN5C[C@H]7[C@@H](CC(=O)O[C@H]7C)CC5=O)CN6S(=O)(=O)C(F)(F)F)cc43)C[C@@H]21 (stereo partly specified),> 100,< 0.01 µM (active),,> 100 µM (inactive),> 100 µM (inactive),> 100 µM (inactive),> 100 µM (inactive),> 100 µM (inactive),> 100 µM (inactive),> 100 µM (inactive),> 100 µM (inactive),> 100 µM (inactive),> 100 µM (inactive),> 100 µM (inactive),> 100 µM (inactive),> 100 µM (inactive),> 100 µM (inactive),> 100 µM (inactive),> 100 µM (inactive),> 100 µM (inactive)
COC(=O)/C=C(\C)C(=O)N(C)c1ccccc1I,> 100,,,> 100 µM (inactive),> 100 µM (inactive),> 100 µM (inactive),> 100 µM (inactive),> 100 µM (inactive),> 100 µM (inactive),> 100 µM (inactive),> 100 µM (inactive),> 100 µM (inactive),> 100 µM (inactive),> 100 µM (inactive),> 100 µM (inactive),> 100 µM (inactive),> 100 µM (inactive),> 100 µM (inactive),> 100 µM (inactive),> 100 µM (inactive)
N#Cc1nc(C(=O)c2ccccc2)oc1N,> 100,,,> 100 µM (inactive),> 100 µM (inactive),> 100 µM (inactive),> 100 µM (inactive),> 100 µM (inactive),65.5 µM (inactive),> 100 µM (inactive),> 100 µM (inactive),> 100 µM (inactive),> 100 µM (inactive),> 100 µM (inactive),> 100 µM (inactive),,> 100 µM (inactive),> 100 µM (inactive),> 100 µM (inactive),> 100 µM (inactive)
Cc1cc(NC(=O)NC(=O)c2ccccc2[N+](=O)[O-])ccc1Oc1ncc(Cl)cn1,0.113,0.0883 µM (active),0.0402 µM (active),0.125 µM (active),0.0336 µM (active),2.37 µM (inactive),0.223 µM (active),0.664 µM (active),,0.0702 µM (active),0.037 µM (active),0.037 µM (active),0.0671 µM (active),0.0501 µM (active),0.0581 µM (active),,0.0551 µM (active),,0.0575 µM (active),14.1 µM (inactive)
CSc1nc(Nc2ccccc2Cl)c2c(N)nn(C)c2n1,> 100,,75.2 µM (inactive),> 100 µM (inactive),> 100 µM (inactive),> 100 µM (inactive),> 100 µM (inactive),28.3 µM (inactive),24.4 µM (inactive),> 100 µM (inactive),,> 100 µM (inactive),82 µM (inactive),> 100 µM (inactive),27 µM (inactive),69.5 µM (inactive),> 100 µM (inactive),> 100 µM (inactive),> 100 µM (inactive),> 100 µM (inactive)
COC(=O)[C@@H]1CN(C(C)=O)C(=O)N1,> 100,> 100 µM (inactive),> 100 µM (inactive),> 100 µM (inactive),> 100 µM (inactive),> 100 µM (inactive),> 100 µM (inactive),5.06 µM (inactive),> 100 µM (inactive),> 100 µM (inactive),,> 100 µM (inactive),> 100 µM (inactive),> 100 µM (inactive),> 100 µM (inactive),> 100 µM (inactive),> 100 µM (inactive),> 100 µM (inactive),> 100 µM (inactive),> 100 µM (inactive)
CS(=O)(=O)O[C@H]1CN2C[C@@H](O)[C@@H](O)[C@H]2[C@H]1CO.[B],> 100,> 100 µM (inactive),,> 100 µM (inactive),> 100 µM (inactive),> 100 µM (inactive),> 100 µM (inactive),> 100 µM (inactive),> 100 µM (inactive),> 100 µM (inactive),> 100 µM (inactive),> 100 µM (inactive),> 100 µM (inactive),> 100 µM (inactive),> 100 µM (inactive),> 100 µM (inactive),> 100 µM (inactive),> 100 µM (inactive),> 100 µM (inactive),> 100 µM (inactive)
O=C(O)C1CC(O)CN1 (stereo unspecified),> 100,> 100 µM (inactive),,> 100 µM (inactive),> 100 µM (inactive),> 100 µM (inactive),> 100 µM (inactive),> 100 µM (inactive),> 100 µM (inactive),> 100 µM (inactive),> 100 µM (inactive),> 100 µM (inactive),> 100 µM (inactive),> 100 µM (inactive),> 100 µM (inactive),> 100 µM (inactive),> 100 µM (inactive),> 100 µM (inactive),> 100 µM (inactive),> 100 µM (inactive)
CC(=O)NC(Cc1c[nH]cn1)C(=O)N1CCCC1C(N)=O (stereo unspecified),> 100,,> 100 µM (inactive),> 100 µM (inactive),> 100 µM (inactive),> 100 µM (inactive),> 100 µM (inactive),> 100 µM (inactive),> 100 µM (inactive),> 100 µM (inactive),> 100 µM (inactive),> 100 µM (inactive),> 100 µM (inactive),> 100 µM (inactive),> 100 µM (inactive),> 100 µM (inactive),> 100 µM (inactive),,> 100 µM (inactive),> 100 µM (inactive)
Nc1nc(NNc2cccc(F)c2)cc(=O)[nH]1,42.5,> 100 µM (inactive),,29.6 µM (inactive),25.2 µM (inactive),> 100 µM (inactive),32.2 µM (inactive),42.2 µM (inactive),> 100 µM (inactive),27.7 µM (inactive),29.5 µM (inactive),36.1 µM (inactive),18.8 µM (inactive),31.2 µM (inactive),25 µM (inactive),44.9 µM (inactive),,,,51.6 µM (inactive)
CN(C)/C=N\c1nncc2[nH]cnc12,> 100,> 100 µM (inactive),> 100 µM (inactive),> 100 µM (inactive),> 100 µM (inactive),> 100 µM (inactive),> 100 µM (inactive),,> 100 µM (inactive),77.6 µM (inactive),> 100 µM (inactive),43.6 µM (inactive),> 100 µM (inactive),82.6 µM (inactive),60.1 µM (inactive),> 100 µM (inactive),51.8 µM (inactive),> 100 µM (inactive),> 100 µM (inactive),> 100 µM (inactive)
CCCc1cc(=O)oc2c3c(c4c(c12)OC(C)(C)C=C4)O[C@@H](C)[C@H](C)C3=O,15,17.7 µM (inactive),13.6 µM (inactive),8.83 µM (inactive),15.5 µM (inactive),13 µM (inactive),3.83 µM (inactive),11.8 µM (inactive),12.2 µM (inactive),6.61 µM (inactive),17.6 µM (inactive),6.46 µM (inactive),16.9 µM (inactive),13.4 µM (inactive),18.5 µM (inactive),12.5 µM (inactive),,,,
NC(=O)Nc1c(Cl)cc(S(N)(=O)=O)cc1Cl,> 100,> 100 µM (inactive),> 100 µM (inactive),> 100 µM (inactive),,> 100 µM (inactive),> 100 µM (inactive),> 100 µM (inactive),> 100 µM (inactive),> 100 µM (inactive),> 100 µM (inactive),> 100 µM (inactive),> 100 µM (inactive),> 100 µM (inactive),> 100 µM (inactive),> 100 µM (inactive),> 100 µM (inactive),> 100 µM (inactive),> 100 µM (inactive),> 100 µM (inactive)
